According to ChEMBL document CHEMBL3244265, “Preparation and biological actions of some symmetrically N,N-disubstituted dopamines” (J Med Chem, 1978):
Calls of active or inactive are those of the source. The calls are words filed in the database; no cut-off is given here.

Key:
[1] = test system: Rattus norvegicus; experiment: Induction of hyperactivity in Sprague-Dawley rat at 3.13 to 50 ug administered into nucleus accumbens; format: functional, organism-based
[2] = test system: Felis catus; experiment: Inhibition of 2 Hz electric current-induced cardioaccelerator nerve stimulation in iv dosed cat by cardiotachometer analysis in presence of 2 mg/kg, iv phentolamine; format: functional, organism-based; parameters: dose 2 mg/kg; details: at 2 mg/kg
[3] = test system: Rattus norvegicus; experiment: Induction of stereotyped behaviour in Sprague-Dawley rat at 2.5 to 20 mg/kg, sc; format: functional, organism-based
[4] = test system: Rattus norvegicus; experiment: Induction of hyperactivity in Sprague-Dawley rat at 3.13 to 50 ug administered into caudate putamen; format: functional, organism-based
[5] = test system: Rattus norvegicus; experiment: Induction of hyperactivity in Sprague-Dawley rat at 2.5 to 20 mg/kg, sc; format: functional, organism-based
[6] = test system: Canis familiaris; experiment: Antagonism of apomorphine-induced emesis in sc dosed dog treated 15 mins prior to apomorphine challenge; format: functional, organism-based; details: Canis lupus familiaris
[7] = test system: Felis catus; experiment: Inhibition of 2 Hz electric current-induced cardioaccelerator nerve stimulation in iv dosed cat by cardiotachometer analysis; format: functional
[8] = test system: Columba livia; experiment: Induction of pecking in im dosed pigeon; format: functional, organism-based
[9] = organism: Felis catus; experiment: Agonist activity at dopamine receptor in cat right atrium assessed as inhibition of cardiaccelerator nerve stimulation rate by cardiotachometer analysis; format: tissue-based; details: Cardiac atrium
[10] = test system: Rattus norvegicus; experiment: Induction of stereotyped behaviour in intrastriatally dosed Sprague-Dawley rat at 3.13 to 50 ug administered into nucleus accumbens; format: functional, organism-based
[11] = test system: Rattus norvegicus; experiment: Induction of stereotyped behaviour in intrastriatally dosed Sprague-Dawley rat at 3.13 to 50 ug administered into caudate putamen; format: functional, organism-based
[12] = test system: Felis catus; experiment: Inhibition of 2 Hz electric current-induced cardioaccelerator nerve stimulation in iv dosed cat by cardiotachometer analysis in presence of 0.2 mg/kg, iv haloperidol; format: functional, organism-based; parameters: dose 0.2 mg/kg; details: at 0.2 mg/kg
[13] = test system: Felis catus; experiment: Effect on heart rate in iv dosed cat; format: functional, organism-based
[14] = test system: Columba livia; experiment: Antagonism of apomorphine-induced pecking in im dosed pigeon treated 15 mins prior to apomorphine challenge; format: functional
[15] = test system: Canis familiaris; experiment: Toxicity in dog up to 2 mg/kg, sc; format: organism-based, Canis lupus familiaris; parameters: dose 2 mg/kg, route subcutaneous; details: in vivo
[16] = test system: Canis familiaris; experiment: Induction of emesis in sc dosed dog; format: functional; details: Canis lupus familiaris
[17] = test system: Rattus norvegicus; experiment: Induction of circling behaviour in Sprague-Dawley rat at 2.5 to 20 mg/kg, sc; format: functional, organism-based
[18] = test system: Felis catus; experiment: Inhibition of 10 Hz electric current-induced cardioaccelerator nerve stimulation in iv dosed cat by cardiotachometer analysis; format: functional, organism-based
[19] = organism: Canis familiaris; experiment: Inhibition of cardioaccelerator nerve stimulation in dog in presence of phentolamine; format: functional, organism-based; details: Canis lupus familiaris
[20] = test system: Felis catus; experiment: Hypotensive activity in iv dosed cat; format: functional, organism-based
[21] = organism: Felis catus; experiment: Agonist activity at dopamine receptor in cat right atrium assessed as inhibition of cardiaccelerator nerve stimulation rate at 10 umol/L by cardiotachometer analysis; format: tissue-based; details: Cardiac atrium
[22] = test system: Felis catus; experiment: Inhibition of 2 Hz electric current-induced cardioaccelerator nerve stimulation in cat at 10 umol/kg, iv by cardiotachometer analysis; format: functional, organism-based
[23] = test system: Rattus norvegicus; experiment: Induction of circling behaviour in Sprague-Dawley rat administered into caudate putamen; format: functional, organism-based
[24] = test system: Felis catus; experiment: Hypotensive activity in iv dosed cat in presence of haloperidol; format: functional, organism-based
[25] = test system: Rattus norvegicus; experiment: Induction of stereotyped behaviour in Sprague-Dawley rat administered into nucleus accumbens in presence of 5 mg/kg propranolol; format: functional, organism-based; parameters: dose 5 mg/kg
[26] = test system: Rattus norvegicus; experiment: Induction of stereotyped behaviour in Sprague-Dawley rat administered into caudate putamen in presence of 0.2 to 0.8 mg/kg haloperidol; format: functional, organism-based
[27] = test system: Rattus norvegicus; experiment: Induction of hyperactivity in Sprague-Dawley rat administered into caudate putamen in presence of 5 mg/kg aceperone; format: functional, organism-based; parameters: dose 5 mg/kg
[28] = test system: Rattus norvegicus; experiment: Induction of circling behaviour in Sprague-Dawley rat administered into nucleus accumbens in presence of haloperidol; format: functional, organism-based
[29] = test system: Rattus norvegicus; experiment: Induction of circling behaviour in sc dosed Sprague-Dawley rat assessed as onset of action; format: functional
[30] = test system: Rattus norvegicus; experiment: Induction of hyperactivity in Sprague-Dawley rat administered into nucleus accumbens in presence of 5 mg/kg propranolol; format: functional, organism-based; parameters: dose 5 mg/kg
[31] = test system: Rattus norvegicus; experiment: Induction of hyperactivity in Sprague-Dawley rat administered into nucleus accumbens in presence of 0.2 to 0.8 mg/kg haloperidol; format: functional, organism-based
[32] = test system: Rattus norvegicus; experiment: Induction of circling behaviour in sc dosed Sprague-Dawley rat assessed as duration of action; format: functional
[33] = test system: Rattus norvegicus; experiment: Induction of hyperactivity in Sprague-Dawley rat administered into caudate putamen in presence of 5 mg/kg propranolol; format: functional, organism-based; parameters: dose 5 mg/kg
[34] = test system: Rattus norvegicus; experiment: Induction of stereotyped behaviour in Sprague-Dawley rat administered into nucleus accumbens in presence of 0.2 to 0.8 mg/kg haloperidol; format: functional, organism-based
[35] = test system: Rattus norvegicus; experiment: Induction of circling behaviour in sc dosed Sprague-Dawley rat assessed as reversal of spontaneous ipsilateral to contralateral circling response; format: functional, organism-based
[36] = test system: Rattus norvegicus; experiment: Induction of stereotyped behaviour in Sprague-Dawley rat administered into caudate putamen in presence of 5 mg/kg aceperone; format: functional, organism-based; parameters: dose 5 mg/kg
[37] = test system: Rattus norvegicus; experiment: Induction of circling behaviour in sc dosed Sprague-Dawley rat in presence of 5 mg/kg aceperone; format: functional, organism-based; parameters: dose 5 mg/kg
[38] = test system: Rattus norvegicus; experiment: Induction of circling behaviour in Sprague-Dawley rat administered into caudate putamen in presence of aceperone; format: functional, organism-based
[39] = test system: Rattus norvegicus; experiment: Induction of circling behaviour in Sprague-Dawley rat administered into nucleus accumbens; format: functional, organism-based
[40] = test system: Rattus norvegicus; experiment: Induction of circling behaviour in sc dosed Sprague-Dawley rat in presence of 5 mg/kg propranolol; format: functional, organism-based; parameters: dose 5 mg/kg
[41] = test system: Rattus norvegicus; experiment: Induction of circling behaviour in sc dosed Sprague-Dawley rat in presence of 0.8 mg/kg haloperidol; format: functional, organism-based; parameters: dose 0.8 mg/kg
[42] = test system: Rattus norvegicus; experiment: Induction of hyperactivity in Sprague-Dawley rat administered into nucleus accumbens in presence of 5 mg/kg aceperone; format: functional, organism-based; parameters: dose 5 mg/kg
[43] = test system: Rattus norvegicus; experiment: Induction of circling behaviour in Sprague-Dawley rat administered into caudate putamen in presence of haloperidol; format: functional, organism-based
[44] = test system: Rattus norvegicus; experiment: Induction of stereotyped behaviour in Sprague-Dawley rat administered into nucleus accumbens; format: functional, organism-based
[45] = test system: Rattus norvegicus; experiment: Induction of hyperactivity in Sprague-Dawley rat administered into caudate putamen in presence of 0.2 to 0.8 mg/kg haloperidol; format: functional, organism-based
[46] = test system: Rattus norvegicus; experiment: Induction of stereotyped behaviour in Sprague-Dawley rat administered into caudate putamen; format: functional, organism-based
[47] = test system: Rattus norvegicus; experiment: Induction of circling behaviour in Sprague-Dawley rat administered into nucleus accumbens in presence of propranolol; format: functional, organism-based
[48] = test system: Rattus norvegicus; experiment: Induction of stereotyped behaviour in Sprague-Dawley rat administered into nucleus accumbens in presence of 5 mg/kg aceperone; format: functional, organism-based; parameters: dose 5 mg/kg
[49] = test system: Rattus norvegicus; experiment: Induction of hyperactivity in Sprague-Dawley rat administered into caudate putamen; format: functional, organism-based
[50] = test system: Rattus norvegicus; experiment: Induction of circling behaviour in Sprague-Dawley rat administered into nucleus accumbens in presence of aceperone; format: functional, organism-based
[51] = test system: Rattus norvegicus; experiment: Induction of circling behaviour in Sprague-Dawley rat administered into caudate putamen in presence of propranolol; format: functional, organism-based
[52] = test system: Rattus norvegicus; experiment: Induction of stereotyped behaviour in Sprague-Dawley rat administered into caudate putamen in presence of 5 mg/kg propranolol; format: functional, organism-based; parameters: dose 5 mg/kg
[53] = test system: Rattus norvegicus; experiment: Induction of hyperactivity in Sprague-Dawley rat administered into nucleus accumbens; format: functional, organism-based

CN(C)CCc1ccc(O)c(O)c1 was tested, and the Activity [1] was “inactive”, the inhibition [2] was “inactive” and the Activity [3] was “inactive”. The Activity [4] was “inactive”, the Activity [5] was “inactive” and the inhibition [6] was “inactive”. The ED50 [7] was 0.024 µmol/kg, the Activity [8] was “inactive” and the ED50 [9] was 70 nM. The Activity [10] was “inactive”, the Activity [11] was “inactive” and the inhibition [12] was “inactive”. The Activity [13] was “inactive”, the ED50 [14] was 9.7 µmol/kg and the Activity [15] was “Non-toxic”. For the same compound, the ED50 [16] was “inactive”, the Activity [17] was “inactive” and the inhibition [18] was “inactive”. The inhibition [19] was “inactive”.

CCCCN(CCCC)CCc1ccc(O)c(O)c1 was tested, and the Activity [1] was “inactive”, the Activity [3] was “inactive” and the Activity [4] was “inactive”. For the same compound, the Activity [5] was “inactive”, the Activity [8] was “inactive” and the Activity [10] was “inactive”. The Activity [20] was “inactive”, the Activity [11] was “inactive” and the Activity [13] was “inactive”. For the same compound, the inhibition [21] was “inactive”, the Activity [17] was “inactive” and the inhibition [22] was “inactive”. The inhibition [18] was “inactive”.

For CCN(CC)CCc1ccc(O)c(O)c1, the Activity [23] was “Active”, the Activity [24] was “inactive” and the Activity [25] was “Active”. The Activity [26] was “inactive”, the inhibition [2] was “Active” and the Activity [3] was “inactive”. For the same compound, the Activity [27] was “Active”, the Activity [28] was “inactive” and the Time [29] was 3 min. For the same compound, the Activity [30] was “Active”, the Activity [31] was “inactive” and the Time [32] was 5 min. The Activity [33] was “Active”, the Activity [5] was “inactive” and the inhibition [6] was “inactive”. For the same compound, the ED50 [7] was 0.041 µmol/kg, the Activity [8] was “inactive” and the ED50 [9] was 340 nM. For the same compound, the Activity [34] was “inactive”, the Activity [20] was “Active” and the inhibition [12] was “inactive”. For the same compound, the Activity [35] was “Active”, the Activity [36] was “Active” and the Activity [13] was “inactive”. For the same compound, the Activity [37] was “Active”, the ED50 [14] was “inactive” and the Activity [15] was “Non-toxic”. The Activity [38] was “Active”, the Activity [39] was “Active” and the Activity [40] was “Active”. For the same compound, the Activity [41] was “inactive”, the Activity [42] was “Active” and the Activity [43] was “inactive”. For the same compound, the Activity [44] was “Active”, the ED50 [16] was “inactive” and the Activity [45] was “inactive”. The Activity [46] was “Active”, the Activity [47] was “Active” and the Activity [48] was “Active”. The Activity [49] was “Active”, the Activity [50] was “Active” and the Activity [51] was “Active”. The inhibition [18] was “inactive”, the Activity [52] was “Active” and the Activity [53] was “Active”.
